From patent publication US20120316105A1, “Polymyxin Derivates Useful As Antibacterial Agents” (priority 2011, published 2012)
Read-outs that look alike come from different tables or passages of the source. Bridge positions count the residues as written; N and C are the ends. Square brackets hold non-standard residues; d marks the D form. Peptide text beside a SMILES is read from it. * marks the point of attachment. Isonicotinoyl(2-Ph) = O=C(c1ccnc(-c2ccccc2)c1)*; X3 = O=C(c1ccnc(-c2cccc(Cl)c2)c1)*; X1 = CC[C@H](C)CCCCC(=O)*; dDap = NC[C@@H](N)C(=O)O; Dab = NCC[C@H](N)C(=O)O; Dap = NC[C@H](N)C(=O)O

What was measured:
[1] = system: KP-5016, ESBL+ clinical isolate of Klebsiella pneumoniae (SHV-5); experiment: Minimum inhibitory concentration (MIC, CLSI), KP-5016; format: cell-based; conditions: K. pneumoniae KP-5016; overnight incubation, lower of duplicate values; trifluoroacetate salt (Example 1 and PMB sulfate)
Description: (§1) Minimum bactericidal concentration (MBC, mg/L), minimum inhibitory concentration (MIC, mg/L), and human renal proximal tubule epithelial cell line cytotoxicity concentration 50% (hRPTEC, TC50, micromolar) for compounds of Formula I are listed in Table 2. The compounds of Formula I were tested as the corresponding trifluoroacetate salt except for Example 1 which was tested as the sulfate salt. For Table 2 below: PMB=polymyxin B as the sulfate salt (Bedford Laboratories, pharmaceutical grade); PMB1=polymyxin B1 as the trifluoroacetate salt; Nona=polymyxin B nonapeptide as the trifluoroacetate salt. PMB1 and Nona were prepared using the solid phase methodology described in the experimental section herein.
(§2) The in vitro antibacterial activity of compounds of Formula I was evaluated by MIC testing according to Clinical and Laboratory Standards Institute (CLSI). See: Clinical and Laboratory Standards Institute. Methods for Dilution Antimicrobial Susceptibility Tests for Bacteria that Grow Aerobically; Approved Standard-Eighth Edition. CLSI document M7-A8 [ISBN 1-56238-689-1]. Clinical and Laboratory Standards Institute, 940 West Valley Road, Suite 1400, Wayne, Pa. 19087-1898 USA, 2006; also Clinical and Laboratory Standards Institute. Performance Standards for Antimicrobial Susceptibility Testing; Twentieth Informational Supplement. CLSI document M100-S20 [ISBN 1-56238-716-2]. Clinical and Laboratory Standards Institute. Methods for Determining Bactericidal Activity of Antimicrobial Agents; Approved Guideline. CLSI document M26-A (ISBN 1-56238-384-1). CLSI, 940 West Valley Road, Suite 1400, Wayne, Pa. 19087-1898 USA, 1999.
(§3) The MIC determination is a standard laboratory method for evaluating the antibacterial activity of a compound. The MIC represents the lowest drug concentration that inhibits visible growth of bacteria following overnight incubation. […] Typically, the drug concentration range is broken down into 2-fold increments (e.g. 0.06 mg/L, 0.12 mg/L, 0.25 mg/L, 0.50 mg/L, 1.0 mg/L, etc.) and the various drug concentrations are all individually incubated overnight with approximately the same number of bacteria. The MIC is then determined by visually inspecting the drug effect at each concentration, and identifying the lowest drug concentration that has inhibited bacterial growth as compared to the drug free control. Typically, bacteria continue to grow at drug concentrations lower than the MIC and don't grow at concentrations at and above the MIC.
(§4) The MIC values described in Table 2 below were derived from assays wherein each test compound was evaluated in duplicate. In cases where the duplicate values varied by 0-2-fold, the lower of the two values was reported below. Generally speaking, if the duplicate values varied by more than 2-fold, the assay was considered non-valid and was repeated until the variation between duplicate runs was ≦2-fold. In line with the CLSI guidelines referred to above, both control organisms and reference compounds were utilized in each MIC assay to provide proper quality control. MIC values generated with these control organisms and reference compounds were required to fall within a defined range for the assay to be considered valid and be included herein. Those skilled in the art will recognize that MIC values can and do vary from experiment to experiment. Generally speaking, it should be recognized that MIC values often vary +/−2-fold from experiment to experiment. While a single MIC is reported for each compound and each microorganism, the reader should not conclude that each compound was only tested once. Several of the compounds were subjected to multiple tests. The data reported in Table 2 is reflective of the compounds relative activity and different MICs may have been generated on these occasions in line with the guidelines described above.
The following bacterial strains were used in these MIC determinations: […]

[2] = system: EC-1, mouse virulent strain of Escherichia coli; format: cell-based; conditions: E. coli EC-1; overnight incubation, lower of duplicate values; trifluoroacetate salt (Example 1 and PMB sulfate)
How it was run: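 Compounds were tested mostly as trifluoroacetate salts. Duplicate CLSI broth-dilution MICs were read visually after overnight incubation over 2-fold dilutions, with the lower of duplicates within 2-fold taken. QC organisms and reference drugs were included in each run.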

[3] = Cytotoxicity assay (LDH release), hRPTEC; format: cell-based, human; conditions: for CC50 at 24 h: human
How it was run: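 hRPTEC grown 72 h in REGM, then exposed to compounds at 100, 67, 44, 30, 20 and 13 micromolar for 24 h at 37° C, 5% CO2. LDH released into supernatant measured; TC50 (micromolar) derived. Compounds tested as trifluoroacetate salts unless otherwise noted.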

[4] = system: KP-3700, ESBL+ clinical isolate of Klebsiella pneumoniae; experiment: Minimum inhibitory concentration (MIC, CLSI), KP-3700; format: cell-based; conditions: K. pneumoniae KP-3700; overnight incubation, lower of duplicate values; trifluoroacetate salt (Example 1 and PMB sulfate)
Description: as §1, §2, §3, §4
The following bacterial strains were used in these MIC determinations:
KP-3700 is an ESBL+clinical isolate of Klebsiella pneumoniae obtained in 2006; and […]

[5] = system: Pseudomonas aeruginosa strain PA01; format: cell-based
How it was run: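 CLSI broth dilution against P. aeruginosa PA01 with two-fold concentration steps and overnight incubation; MIC is lowest concentration visibly inhibiting growth versus drug-free control, in mg/L. Compounds tested as trifluoroacetate salts, in duplicate, lower value reported if within 2-fold; control organisms and reference compounds included.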

[6] = system: AB-3167, clinical isolate of Acinetobacter baumannii; format: cell-based
How it was run: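 Broth dilution MIC per CLSI (M7-A8, M100-S20, M26-A for bactericidal), 2-fold dilution series, overnight incubation, visual read of lowest concentration inhibiting growth versus drug-free control. Duplicates run; lower value reported if within 2-fold, otherwise repeated. Compounds tested as trifluoroacetate salts; QC strains and reference compounds required in range.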

[7] = system: AB-1649, polymyxin-resistant clinical isolate of Acinetobacter baumannii; format: cell-based
How it was run: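 Broth dilution MIC per CLSI against the polymyxin-resistant A. baumannii isolate, 2-fold dilutions, overnight incubation, visual read of lowest concentration inhibiting growth. Run in duplicate, lower value reported when within 2-fold; MBC per CLSI M26-A guideline.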

[8] = system: PA-1646, polymyxin-resistant clinical isolate of Pseudomonas aeruginosa; format: cell-based
How it was run: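 Broth dilution MIC per CLSI with 2-fold concentration steps, read visually after overnight incubation as lowest concentration inhibiting growth; duplicates within 2-fold, lower value reported, with QC strains and reference compounds. Compounds tested as trifluoroacetate salts, polymyxin B as sulfate.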

[9] = system: PA-1646, polymyxin-resistant clinical isolate of Pseudomonas aeruginosa; format: cell-based; remark: listed apart in the source
How it was run: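 Broth dilution MIC and bactericidal (MBC) testing per CLSI methods (M7-A8, M100-S20, M26-A) against polymyxin-resistant clinical P. aeruginosa isolate PA-1646. Compounds tested as trifluoroacetate salts, one as sulfate salt; values in mg/L.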

[10] = system: AB-1649, polymyxin-resistant clinical isolate of Acinetobacter baumannii; format: cell-based; remark: listed apart in the source
How it was run: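 MIC and MBC were measured by CLSI broth dilution methods (M7-A8, M100-S20, M26-A) against a polymyxin-resistant clinical isolate and reported in mg/L. Compounds were tested as trifluoroacetate salts, with one exception tested as the sulfate.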

[11] = AB-1649, polymyxin-resistant clinical isolate of
[12] = PA-1646, polymyxin-resistant clinical isolate of
[13] = A. baumannii AB-3167, overnight incubation, lower of duplicate values, trifluoroacetate salt (Example 1 and PMB sulfate)

CC(C)C[C@@H]1NC(=O)[C@@H](Cc2ccccc2)NC(=O)[C@H](CCN)NC(=O)[C@@H](NC(=O)[C@H](CN)NC(=O)[C@H](CO)NC(=O)[C@H](CCN)NC(=O)c2ccnc(-c3ccccc3)c2)CCNC(=O)[C@H]([C@@H](C)O)NC(=O)[C@H](CCN)NC(=O)[C@H](CCN)NC1=O [Example 46] ({Isonicotinoyl(2-Ph)}-[Dab]S[Dap][Dab][Dab][dF]L[Dab][Dab]T; lactam 4-C)
KP-5016 MIC [1]: 64 µg/mL
EC-1 MIC [2]: 0.25 µg/mL
CC50 at 24 h [3]: 98 µM
KP-3700 MIC [4]: 0.5 µg/mL
PA01 MIC ([5]; strain): 0.5 µg/mL
AB-3167 MIC ([6]; AB-3167, clinical isolate of): 1 µg/mL
AB-1649 MIC [7, 11]: 4 µg/mL
PA-1646 MIC [8, 12]: 64 µg/mL

CC(C)C[C@@H]1NC(=O)[C@@H](Cc2ccccc2)NC(=O)[C@H](CCN)NC(=O)[C@@H](NC(=O)[C@@H](CN)NC(=O)[C@@H](NC(=O)[C@H](CCN)NC(=O)c2ccnc(-c3ccccc3)c2)[C@@H](C)O)CCNC(=O)[C@H]([C@@H](C)O)NC(=O)[C@H](CCN)NC(=O)[C@H](CCN)NC1=O [Example 47] ({Isonicotinoyl(2-Ph)}-[Dab]T[dDap][Dab][Dab][dF]L[Dab][Dab]T; lactam 4-C)
PA-1646 MBC [9, 12]: 2 µg/mL
KP-5016 MIC [1]: 8 µg/mL
EC-1 MIC [2]: 0.25 µg/mL
CC50 at 24 h [3]: 100 µM
KP-3700 MIC [4]: 0.25 µg/mL
PA01 MIC ([5]; strain): 0.5 µg/mL
AB-3167 MIC ([6]; AB-3167, clinical isolate of): 0.5 µg/mL
AB-1649 MIC [7, 11]: 4 µg/mL
PA-1646 MIC [8, 12]: 1 µg/mL
AB-1649 MBC [10, 11]: 4 µg/mL

CC[C@H](C)[C@@H]1NC(=O)[C@@H](Cc2ccccc2)NC(=O)[C@H](CCN)NC(=O)[C@@H](NC(=O)[C@H](CN)NC(=O)[C@@H](NC(=O)[C@H](CCN)NC(=O)c2ccnc(-c3cccc(Cl)c3)c2)[C@@H](C)O)CCNC(=O)[C@H]([C@@H](C)O)NC(=O)[C@H](CCN)NC(=O)[C@H](CCN)NC1=O [Example 48] (X3-[Dab]T[Dap][Dab][Dab][dF]I[Dab][Dab]T; lactam 4-C)
PA-1646 MBC [9, 12]: 2 µg/mL
KP-5016 MIC [1]: 32 µg/mL
EC-1 MIC [2]: 0.25 µg/mL
CC50 at 24 h [3]: 33 µM
KP-3700 MIC [4]: 0.25 µg/mL
PA01 MIC ([5]; strain): 0.5 µg/mL
AB-3167 MIC ([6]; AB-3167, clinical isolate of): 0.25 µg/mL
AB-1649 MIC [7, 11]: 0.5 µg/mL
PA-1646 MIC [8, 12]: 1 µg/mL
AB-1649 MBC [10, 11]: 0.5 µg/mL

CC[C@H](C)[C@@H]1NC(=O)[C@@H](Cc2ccccc2)NC(=O)[C@H](CCN)NC(=O)[C@@H](NC(=O)[C@H](CN)NC(=O)[C@@H](NC(=O)[C@H](CCN)NC(=O)c2ccnc(-c3ccccc3)c2)[C@@H](C)O)CCNC(=O)[C@H]([C@@H](C)O)NC(=O)[C@H](CCN)NC(=O)[C@H](CCN)NC1=O [Example 49] ({Isonicotinoyl(2-Ph)}-[Dab]T[Dap][Dab][Dab][dF]I[Dab][Dab]T; lactam 4-C)
PA-1646 MBC [9, 12]: 8 µg/mL
KP-5016 MIC [1]: 16 µg/mL
EC-1 MIC [2]: 0.125 µg/mL
CC50 at 24 h [3]: > 100 µM
KP-3700 MIC [4]: 0.25 µg/mL
PA01 MIC ([5]; strain): 0.5 µg/mL
AB-3167 MIC [6, 13]: 0.125 µg/mL
AB-1649 MIC [7, 11]: 0.25 µg/mL
PA-1646 MIC [8, 12]: 4 µg/mL
AB-1649 MBC [10, 11]: 0.25 µg/mL

CC(C)C[C@@H]1NC(=O)[C@@H](Cc2ccccc2)NC(=O)[C@H](CCN)NC(=O)[C@@H](NC(=O)[C@H](CCN)NC(=O)[C@@H](N)[C@@H](C)O)CCNC(=O)[C@H]([C@@H](C)O)NC(=O)[C@H](CCN)NC(=O)[C@H](CCN)NC1=O [Nona, polymyxin B nonapeptide, reference compound] (H-T[Dab][Dab][Dab][dF]L[Dab][Dab]T; lactam 3-C (inferred))
PA-1646 MBC [9, 12]: >64 µg/mL
KP-5016 MIC [1]: >64 µg/mL
EC-1 MIC [2]: >64 µg/mL
CC50 [3]: > 100 µM
KP-3700 MIC [4]: >64 µg/mL
PA01 MIC ([5]; strain): >64 µg/mL
AB-3167 MIC ([6]; AB-3167, clinical isolate of): >64 µg/mL
AB-1649 MIC [7, 11]: >64 µg/mL
PA-1646 MIC [8, 12]: >64 µg/mL
AB-1649 MBC [10, 11]: >64 µg/mL

CC[C@H](C)CCCCC(=O)N[C@@H](CCN)C(=O)N[C@H](C(=O)N[C@@H](CCN)C(=O)N[C@H]1CCNC(=O)[C@H]([C@@H](C)O)NC(=O)[C@H](CCN)NC(=O)[C@H](CCN)NC(=O)[C@H](CC(C)C)NC(=O)[C@@H](Cc2ccccc2)NC(=O)[C@H](CCN)NC1=O)[C@@H](C)O [PMB1, polymyxin B1, reference compound] (X1-[Dab]T[Dab][Dab][Dab][dF]L[Dab][Dab]T; lactam 4-C)
PA-1646 MBC ([9]; P. aeruginosa PA-1646, tested as trifluoroacetate salt (Example 1 and PMB as sulfate salt)): 16 µg/mL
KP-5016 MIC [1]: 16 µg/mL
EC-1 MIC [2]: 0.125 µg/mL
CC50 at 24 h ([3]; hRPTEC, 24 hours treatment, LDH release, Toxic Concentration 50%, read-out: hRPTEC TC50): 28 µM
KP-3700 MIC [4]: 0.5 µg/mL
PA01 MIC ([5]; P. aeruginosa PA01, overnight incubation, lower of duplicate values, trifluoroacetate salt (Example 1 and PMB sulfate)): 0.5 µg/mL
AB-3167 MIC [6, 13]: 0.25 µg/mL
AB-1649 MIC ([7]; A. baumannii AB-1649, overnight incubation, lower of duplicate values, trifluoroacetate salt (Example 1 and PMB sulfate)): 4 µg/mL
PA-1646 MIC ([8]; P. aeruginosa PA-1646, overnight incubation, lower of duplicate values, trifluoroacetate salt (Example 1 and PMB sulfate)): 4 µg/mL
AB-1649 MBC ([10]; A. baumannii AB-1649, tested as trifluoroacetate salt (Example 1 and PMB as sulfate salt)): 4 µg/mL
